Key:
[1] = test system: stratum corneum; assay: In vitro stratum corneum comparison of ΔT by differential scanning calorimetry (DSC); settings: variation of INV #1 applied first without rinsing, then hydroxy-acid based peel moisturizer; compared to peel moisturizer alone
Procedure: In studies, the effect of urea at various concentrations and using hydroxyethyl urea (HEU) was according to INV #1 (40% urea, 5% glycine, 0.7% triacetin, buffer) in which the amount and form of urea was varied. […] Studies were conducted with each of the tested compositions to evaluate effect of the compositions on the stratum corneum.
In Vitro Stratum Corneum Comparison of Δ T using differential scanning calorimetry (DSC) is used to characterize the stability of a protein or other biomolecule directly in its native form. It does this by measuring the heat change associated with the molecule's thermal denaturation when heated at a constant rate. Compositions were evaluated on SC samples according to the following procedure. Stratum corneum samples were equilibrated at 75% relative humidity (RH) overnight. Inventive and Comparative Compositions and control treatments applied on SC surface (0.1 g/sample) for 15 min in 75% RH. The SC surface was wiped clean and rinsed with DI water. Allow to dry in 75% RH overnight. The DSC profile was measured from 20° C. to 120° C. at 5° C./min.
As an initial step, each test composition was applied first to skin without rinsing, followed by application of a hydroxy-acid based peel composition in a moisturizer form.

[2] = acute oral toxicity, mutagenicity, skin irritation, skin sensitization, phototoxicity; cited from earlier work

Row | SMILES | desquamation evidenced by stratum corneum disorganization, with increased amounts [1] | adverse effects in basic toxicological tests [2]
1 | NC(=O)NCCO [hydroxyethyl urea] | increased desquamation | 
2 | CC(c1ccccc1)c1ccc(O)cc1O (stereo not drawn) [Phenylethyl resorcinol, phenylethyl resorcinol] |  | has not shown adverse effects
3 | NC(N)=O [urea] | increased desquamation | 

— patent US20230095495A1, “SKIN CONDITIONING COMPOSITION WITH HIGH CONCENTRATION OF UREA TO BOOST THE SKINCARE ACTIVES” (L'OREAL, priority 2021, published 2023)
